The conditions of data set [1]: treatments based on taxoid derivatives, including docetaxel; cited from earlier work.
The next data set deals with breast cancer. The experiment in a line: Docetaxel alone, several in-house proprietary studies. It counts as in vivo, human. On the procedure:
Docetaxel alone, in several in-house proprietary studies, gave overall response rates of 40 to 43% (in second line therapy at a dose of 100 mg/m^2), 48% (in first line therapy at a dose of 75 mg/m^2) and 61% (in first line therapy at a dose of 100 mg/m^2).

In patent US6333348A, “Use of docetaxel for treating cancers” (Aventis Pharma S.A., priority 2000, dated 2001) one finds toxicities and overall response rate data, which are given here for one compound.

For `CC(=O)O[C@@]12CO[C@@H]1C[C@H](O)[C@@]1(C)C(=O)[C@H](O)C3=C(C)[C@@H](OC(=O)[C@H](O)[C@@H](NC(=O)OC(C)(C)C)c4ccccc4)C[C@@](O)([C@@H](OC(=O)c4ccccc4)[C@H]21)C3(C)C` [docetaxel], the toxicities result in data set [1] was “myelosuppression, neutropenia, hypersensitivity, peripheral neuropathy, and fluid retention”. Moreover, the overall response rate is listed as 48% in the data set with breast cancer (first line therapy, 75 mg/m^2); 61% with breast cancer (first line therapy, 100 mg/m^2); 40 to 43% in the data set on breast cancer (second line therapy, 100 mg/m^2).
